Calls of active or inactive are those of the source. The calls are words filed in the database; no cut-off is given here.
Assays:
Casein kinase 2 [1] = molecular target: T1, Casein kinase 2 (Homo sapiens, UniProt P67870+P68400+P19784+Q8NEV1); assay: Inhibition of CK2 (unknown origin); type: protein assay
HL-60 [2] = assay: Induction of apoptosis in human HL-60 cells measured after 48 hrs by flow cytometry; type: functional, cell-based; conditions: DDE = dose-dependent effect
A549 = assay: Antiproliferative activity against human A549 cells assessed as cell viability after 48 hrs by CCK-8 assay; type: functional, cell-based; conditions: A549, 48 h
HepG2 = assay: Antiproliferative activity against human HepG2 cells assessed as cell viability after 48 hrs by CCK-8 assay; type: functional, cell-based; conditions: HepG2, 48 h
HL-60 [3] = assay: Antiproliferative activity against human HL-60 cells assessed as cell viability after 48 hrs by CCK-8 assay; type: functional, cell-based; conditions: HL-60, 48 h
Casein kinase 2 [4] = molecular target: T1, Casein kinase 2; assay: Inhibition of CK2 in human HL-60 cells assessed as decrease in p-alpha-catenin level at 0.1 to 1 uM by Western blot analysis; type: cell-based; conditions: dose 0.1-1 µM
HL-60 [5] = assay: Induction of apoptosis in human HL-60 cells assessed as early apoptotic cells at 1 uM measured after 48 hrs by flow cytometry relative to control; type: functional
Casein kinase 2 [6] = molecular target: T1, Casein kinase 2; assay: Inhibition of CK2 in human HL-60 cells assessed as decrease in survivin level at 0.1 to 1 uM by Western blot analysis; type: cell-based; conditions: dose 0.1-1 µM
Casein kinase 2 [7] = molecular target: T1, Casein kinase 2; assay: Inhibition of CK2 in human HL-60 cells assessed as decrease in p-Akt (S129) level at 0.1 to 1 uM by Western blot analysis; type: cell-based; conditions: dose 0.1-1 µM
Casein kinase 2 [8] = molecular target: T1, Casein kinase 2; assay: Inhibition of CK2 in human HL-60 cells assessed as decrease in p-STAT3 level at 0.1 to 1 uM by Western blot analysis; type: cell-based; conditions: dose 0.1-1 µM
Casein kinase 2 [9] = molecular target: T1, Casein kinase 2; assay: Binding affinity to CK2 (unknown origin) by cellular thermal shift assay; type: protein assay
Casein kinase 2 [10] = molecular target: T1, Casein kinase 2; assay: Inhibition of CK2 in human HL-60 cells assessed as decrease in p-p21 level at 0.1 to 1 uM by Western blot analysis; type: cell-based; conditions: dose 0.1-1 µM
HL-60 [11] = assay: Induction of cell cycle arrest in human HL-60 cells assessed as increase number of cells at G0/G1 phase at 0.1 to 1 uM measured after 12 to 48 hrs by flow cytometry; type: functional, cell-based; conditions: dose 0.1-1 µM, time 12-48 hrs, DDE = dose-dependent effect
Casein kinase 2 [12] = molecular target: T1, Casein kinase 2; assay: Inhibition of CK2 in human HL-60 cells assessed as increase in cleaved PARP level at 0.1 to 1 uM by Western blot analysis; type: cell-based; conditions: dose 0.1-1 µM
SK-OV-3 = assay: Antiproliferative activity against human SK-OV-3 cells assessed as cell viability after 48 hrs by CCK-8 assay; type: functional, cell-based; conditions: SK-OV-3, 48 h
[13] = Cytotoxicity against human MSC assessed as cell viability after 48 hrs by CCK-8 assay; type: toxicity, cell-based; conditions: mesenchymal stem cells (MSC)

SMILES	IC50 (Casein kinase 2 [1])	further results
O=C(Nc1nnco1)c1cc(=O)c2ccccc2o1	6880 nM	–
O=C(Nc1ncc(Br)s1)c1cc(=O)c2ccccc2o1	5440 nM	–
COc1ccc2sc(NC(=O)c3cc(=O)c4ccccc4o3)nc2c1	80 nM	Activity (HL-60 [2]): Dde; IC50 (A549): 380 nM; IC50 (HepG2): 660 nM; IC50 (HL-60 [3]): 250 nM; inhibition (Casein kinase 2 [4]): Active; Activity (HL-60 [5]): 80.7%; inhibition (Casein kinase 2 [6]): Active; inhibition (Casein kinase 2 [7]): Active; inhibition (Casein kinase 2 [8]): Active; Activity (Casein kinase 2 [9]): Active; inhibition (Casein kinase 2 [10]): Active; Activity (HL-60 [11]): Dde; inhibition (Casein kinase 2 [12]): Active; IC50 (SK-OV-3): 390 nM; IC50 at 48 h [13]: 6250 nM
O=C(Nc1nc2ccc(Br)cc2s1)c1cc(=O)c2ccccc2o1	290 nM	–
O=C(Nc1nc2ccc(C(F)(F)F)cc2s1)c1cc(=O)c2ccccc2o1	200 nM	–
Cc1nnc(NC(=O)c2cc(=O)c3ccccc3o2)o1	5200 nM	–
O=Cc1cnc(NC(=O)c2cc(=O)c3ccccc3o2)s1	4980 nM	–
O=C(Nc1nc2ccc(F)cc2s1)c1cc(=O)c2ccccc2o1	240 nM	–
O=C(O)c1cc(=O)c2ccccc2o1 [CHROMOCARB]	5980 nM	–
CC(C)Cc1csc(NC(=O)c2cc(=O)c3ccccc3o2)n1	4350 nM	–
CNC(=O)c1cc(Oc2ccc(NC(=O)Nc3ccc(Cl)c(C(F)(F)F)c3)cc2)ccn1 [SORAFENIB]	–	Activity (HL-60 [5]): 73.2%
COc1ccc2nc(NC(=O)c3cc(=O)c4ccccc4o3)sc2c1	290 nM	–
CC(C)c1csc(NC(=O)c2cc(=O)c3ccccc3o2)n1	5340 nM	–
O=C(Nc1nc2cc(Br)ccc2s1)c1cc(=O)c2ccccc2o1	250 nM	–
O=C(Nc1nc2cc(F)ccc2s1)c1cc(=O)c2ccccc2o1	110 nM	IC50 (A549): 440 nM; IC50 (HepG2): 850 nM; IC50 (HL-60 [3]): 310 nM; IC50 (SK-OV-3): 420 nM; IC50 at 48 h [13]: 4340 nM
Cc1cnc(NC(=O)c2cc(=O)c3ccccc3o2)s1	7110 nM	–
O=C(Nc1ncco1)c1cc(=O)c2ccccc2o1	4880 nM	–
Cc1cc2nc(NC(=O)c3cc(=O)c4ccccc4o3)sc2cc1C	360 nM	–
Cc1nc(NC(=O)c2cc(=O)c3ccccc3o2)sc1C	6110 nM	–
O=C(Nc1nccs1)c1cc(=O)c2ccccc2o1	5210 nM	–
O=C(Nc1nc2ccc(OC(F)(F)F)cc2s1)c1cc(=O)c2ccccc2o1	160 nM	–

More lines, main results first:

IC50 (Casein kinase 2 [1])	SMILES	further results
610 nM	O=C(Nc1nc(-c2ccccc2)cs1)c1cc(=O)c2ccccc2o1	–
740 nM	O=C(Nc1nc(-c2ccc(O)cc2)cs1)c1cc(=O)c2ccccc2o1	–
340 nM	O=C(Nc1nc(-c2ccc(C(F)(F)F)cc2)cs1)c1cc(=O)c2ccccc2o1	–
5550 nM	O=C(Nc1nc(-c2cccc(C(F)(F)F)c2)cs1)c1cc(=O)c2ccccc2o1	–
230 nM	Cc1ccc(-c2csc(NC(=O)c3cc(=O)c4ccccc4o3)n2)cc1	–
6420 nM	Cc1csc(NC(=O)c2cc(=O)c3ccccc3o2)n1	–
590 nM	COc1ccc(-c2csc(NC(=O)c3cc(=O)c4ccccc4o3)n2)cc1	–
150 nM	O=C(Nc1nc(-c2ccc(F)cc2)cs1)c1cc(=O)c2ccccc2o1	IC50 (A549): 520 nM; IC50 (HepG2): 950 nM; IC50 (HL-60 [3]): 420 nM; IC50 (SK-OV-3): 440 nM; IC50 at 48 h [13]: 7560 nM
180 nM	O=C(Nc1nc(-c2ccc(OC(F)(F)F)cc2)cs1)c1cc(=O)c2ccccc2o1	IC50 (A549): 670 nM; IC50 (HepG2): 1040 nM; IC50 (HL-60 [3]): 590 nM; IC50 (SK-OV-3): 490 nM; IC50 at 48 h [13]: 17700 nM
4120 nM	Cc1cccc(-c2csc(NC(=O)c3cc(=O)c4ccccc4o3)n2)c1	–
370 nM	Cc1ccc2nc(NC(=O)c3cc(=O)c4ccccc4o3)sc2c1	–
310 nM	O=C(Nc1nc2ccccc2s1)c1cc(=O)c2ccccc2o1	–
5090 nM	N#Cc1cccc(-c2csc(NC(=O)c3cc(=O)c4ccccc4o3)n2)c1	–
